Experimental findings from patent US8815219B2, “Sunless tanning with pyranones and furanones” (Conopco, Inc., priority 2009, dated 2014) are described below.

The nature of data set [1]: Color development of DHA/glycine compositions by spectrophotometer at 400 nm. Particulars: for enhancement in tanning: Example 6, conclusion from 6 and 27 hour results, DHA 5%, glycine 5%. The procedure: Color development for the above was also assessed using a spectrophotometer set at a wavelength of 400 nm. […] Compositions comprising KOjic acid or Allomaltol were made by mixing the following ingredients at room temperature. […] Visual observation and photographs were taken after 27 hours of mixing. […] 35%, 38% and 19%, respectively, as determined by assessing the Samples with a Spectrophotometer, wavelength 400 nm. […] Compositions were made by mixing the following ingredients at room temperatures. […] All percents are by weight. The Samples were assessed for color development (with a Spectrophometer, 400 nm wavelength) three (3) days after mixing. […] The following compositions were mixed in a manner similar to the one described in Example 7. The Samples were assessed (with a Spectrophotometer, 400 nm wavelength) fifteen (15) hours after mixing.

The nature of data set [2]: Visual observation and photographs of tanning rate (color formation) in DHA/glycine compositions. The note with it: Allomaltol 0.5-3 wt.% added to 5% DHA, 5% glycine in water; visual observations and photographs. The source says:
(§1) Compositions comprising Allomaltol were made by mixing the following: […]

Data set [3] is described as follows: Dissolution of Allomaltol in the aqueous composition. In kind it is physicochemical. Particulars: 3 wt.% Allomatol in 5% DHA, 5% glycine, balance water (Example 3 Sample 5).
Text: as §1

Setting [4] is: 400 nm, after 20 hours of mixing, 5% DHA, 5% glycine.

For `O=c1cc(CO)occ1O` [Kojic acid], the enhancement in tanning entry in data set [1] is recorded as “enhancement in tanning”.
Take `Cc1cc(=O)c(O)co1` [Allomaltol, 3-hydroxy-6-methyl, 4-pyrone]: the “tanning rate (color formation)” value in data set [2] is “enhanced”. For the same compound, in data set [1] (setting [4]), the “color development at 3% Allomaltol greater than at 0.5% Allomaltol” value stood at 45%, the “color development at 3% Allomaltol greater than at 1% Allomaltol” value is listed as 40%, the “color development at 3% Allomaltol greater than at 2% Allomaltol” value is 20% and the “color development at 3% Allomaltol greater than composition deplete of adjuvant” value amounted to 60%. Also, the enhancement in tanning entry in data set [1] is on record as “enhancement in tanning”. In addition, the Allomatol dissolved result in data set [3] was “***= circa 95% Allomatol was dissolved”.
Take `O=c1cc(CCl)occ1O` [chlorinated adjuvant]: the “color body generation with glycine and no DHA” value in data set [1] (Example 7, 0.25% chlorinated adjuvant, 5% glycine, three days after mixing) is recorded as “No color body generation”.
With `Cc1cc(=O)c(NCC(=O)O)co1` [adjuvant], the “color body generation with glycine and no DHA” value in data set [1] (Example 8, 0.5% adjuvant, 5% glycine, fifteen hours after mixing) is reported as “No color body generation”.
